The values that follow come from a melting point compilation (Tetko et al.; mined from patent text by program, amines drawn as free bases though some values may be those of a salt).

The term melting point denotes the temperature, or range, at which the solid turns liquid.

Each structure is given as a SMILES string.

In turn, `Cc1c(-c2ccccc2)c(N2CC[C@H](N(C)C)C2)c2oc(-c3cnn(C)c3)nc2c1C#N` registered a melting point of 214 to 222 °C.

With `CCNc1c(C(=O)OCC)c(=O)n(CC)c2nc(C)ccc12`, the melting point fell in the range of 133 to 136 °C.

As to `C[C@@H](O)[C@H]1C(=O)N([Si](C)(C)C(C)(C)C)[C@@H]1[C@@H]1COC(C)(C)O1`, the melting point was in the range of 80 to 90 °C.

The compound `CCOC(=O)c1cn(-c2cc(N)c(F)cc2F)c2c(C)c(F)c(F)c(N)c2c1=O` displayed a melting point of 134 to 135 °C.

`CCC(C)c1ccc(N(Cc2ccc(C(C)(C)C)cc2)C(=N)N(C)c2ccccc2)cc1` (stereo unspecified) returned a melting point of 80 to 82 °C.

`CCCCNC(=O)NC(N)=O`: the melting point was 129 to 131 °C.

`COc1cc(OC(=O)c2ccccc2)c2ccccc2c1OC(=O)c1ccccc1` displayed a melting point of 63 to 64 °C.

On to `Cc1ccc(-c2cccc(CCl)n2)cc1`, for which the melting point was found to be 94 °C.

Take `CCOC(=O)CN(c1c([N+](=O)[O-])cc([N+](=O)[O-])c2ccccc12)S(=O)(=O)c1ccc(C)cc1`: the melting point was 106 to 107 °C.

In turn, `Cc1cc2c(cc1N)OCO2` came in with a melting point of 88 to 89 °C.

As to `Nc1ccc(N2CCN(c3ccc(OCC(O)(Cn4cncn4)c4ccc(Cl)cc4Cl)cc3)CC2)cc1` (stereo unspecified), the melting point was 120 °C.

The compound `Cc1cc(C)c(-n2ccc3c(N)n[nH]c(=O)c32)c(C)c1` gave a melting point of 290 to 292 °C.

For `N#Cc1ccc(OCc2ccc3c(c2)OCO3)cc1F`, the melting point lay in the range of 139 to 140 °C.

Compound `NC(=O)N1c2ccccc2CC(O)c2ccccc21` (stereo unspecified) gave a melting point of 70.4 to 101 °C.

Compound `CCCOc1ccccc1-c1nc2cc3ncn(CC)c3cc2c(=O)[nH]1` registered a melting point of 212 to 214 °C.

`CCCNC(=O)C(C)Cc1ccc2c(CCC)cn(Cc3ccc(C(=O)O)cc3OC)c2c1` (stereo unspecified): the melting point was 90 to 98 °C.

As to `COc1ccc(-c2cc(C)c(C(=O)NCCCCc3cccnc3)c(C)c2)cc1OC`, the melting point was in the range of 117 to 119 °C.

`CC(C)(C)c1cc(CCc2ccccc2NC(=O)NCCc2ccc(Cl)cc2)cc(C(C)(C)C)c1O` showed a melting point of 173 to 174 °C.

Turning to `COc1cc(C(=O)CS(C)(=O)=O)cc(OC)c1N(C)C`, the melting point fell in the range of 111 to 112 °C.

`COc1ccc2[nH]c(SCC3(N4CCCC4)NC=NC(N4CCCC4)=C3C)nc2c1` (stereo unspecified) had a melting point of 104 to 106 °C.

Turning to `CN1CCC(c2c[nH]c3ccc(NS(=O)(=O)c4ccccc4)nc23)CC1`, the melting point was 148 to 150 °C.

As to `CC1CCN(C(=O)c2ccc([C@H]3CC[C@H](NC[C@H](O)COc4ccc(O)c(NS(C)(=O)=O)c4)CC3)cc2)CC1`, the melting point lay within 90 to 100 °C.

On to `Cc1ccccc1-c1nc2ccccc2n1Cc1c(F)cccc1F`, for which the melting point came to 139 °C.

As to `O=C1NCC(Cc2ccccc2-c2ccccc2)O1` (stereo unspecified), the melting point was in the range of 146 to 148 °C.

The compound `O=C(N1CCOCC1)n1nc2c(Cl)c(Cl)c(Cl)c(Cl)c2n1` yielded a melting point of 194 °C.

The compound `CC(C)(NC(=O)C1=C(C(=O)Nc2cc(OC3CCCC3)c(Cl)cc2F)CCCC1)c1ccc(Br)cc1` came in with a melting point of 214 to 216 °C.

For `O=C(N[C@H](Cc1ccc(C(F)(F)F)cc1)[C@@H](O)c1ccc(F)cc1)c1cccc2c1-c1ccccc1C2=O` (racemic), the melting point lay in the range of 231 to 232 °C.

As to `Cc1ccc(S(=O)(=O)N(O)S(=O)(=O)c2ccc(C)cc2)cc1`, the melting point is 125 to 126 °C.

The compound `O=S1(=O)c2cccc3cccc(c23)N1CCCN1CC=C(c2c[nH]c3ccc(F)cc23)CC1` yielded a melting point of 224 °C.

For `CCCOc1ccc(-c2scc(-c3ccccc3Cl)c2CC(=O)NC(=N)NCCCO)cc1C`, the melting point fell in the range of 73 to 76 °C.

Turning to `CN(C)CCCOc1ccc2ccc(N)nc2n1`, the melting point came to 88 °C.

`COc1cc(C(=O)N2CCC(CCN3CCC(C(=O)c4nc5ccccc5n4CCCC(=O)O)CC3)(c3ccc(Cl)c(Cl)c3)C2)cc(OC)c1OC` (stereo unspecified): the melting point fell in the range of 125 to 140 °C.

Take `O=C(O)c1ccc(NN=C2CCCC2)cc1`: the melting point lay in the range of 250 to 253 °C.

`CC(=O)OC1CSC(Oc2ccc(-c3ccncc3)nc2Cl)C(OC(C)=O)C1OC(C)=O` (stereo unspecified) returned a melting point of 179 °C.

As to `CN(C)c1ccc([N+](=O)[O-])c(C(=O)NCC2CCN(C(c3ccccc3)c3ccccc3)CC2)c1`, the melting point stood at 200 °C.

`CC(C)(C)OC(=O)c1ncn2c1C1CCCN1C(=O)c1cnccc1-2` (stereo unspecified): the melting point lay within 217 to 218 °C.

In turn, `CNc1ccc(N)cc1[N+](=O)[O-]` showed a melting point of 115 to 116 °C.

In turn, `Cc1ccc2c(c1O)N=CC1CCCN1C2=O` (stereo unspecified) came in with a melting point of 148 to 150 °C.

`CC(C)C12COc3cc(Cl)ccc3C1=NN(C(Cl)=Nc1ccc(C(F)(F)F)cc1)C2` (stereo unspecified) displayed a melting point of 148 to 149 °C.

In turn, `CC(C)(N)c1ccc(-c2nc(Nc3ccc(CCn4ccnc4)cc3)ncc2Cl)cc1F` displayed a melting point of 112 to 120 °C.

In turn, `N#Cc1cccc(-n2cnc(-c3ccccn3)n2)c1` returned a melting point of 194 to 195 °C.

On to `CCCc1nc2c(N)nc3cccnc3c2n1CCCCN(OC)C(=O)NC(C)C`, for which the melting point lay within 161 to 162 °C.

The compound `O=c1nc(N(Cc2nnn[nH]2)c2ccc(Cl)cc2)sc2ncccc12` showed a melting point of 258 to 259 °C.

`CC(C)(C#N)c1cc(C(=O)c2cccnc2)cc(C(C)(C)C#N)c1` returned a melting point of 87 to 89 °C.

With `COc1ccc2cc(C(=O)CNC(=O)c3cn(C)c4ccccc34)ccc2c1`, the melting point was 177 to 180 °C.

As for `CN=C(NC#N)N1CCc2[nH]cnc2C1`, the melting point was determined as 240 °C.

With `c1ccc([C@H]2OC[C@@H](OCc3ccccn3)CO2)cc1`, the melting point was in the range of 95 to 98 °C.

The compound `Cn1cnc(COc2ccc(-c3cc(-c4nc(C(C)(C)C)[nH]c4-c4ccccn4)ccn3)cc2)c1` returned a melting point of 156 °C.

In turn, `c1cc(Nc2nncc3ccccc23)cc(-n2ccnc2)c1` registered a melting point of 135 to 137 °C.

As for `CC12CCC3C(CCC4CCCCC43C)C1CC(F)C2=O` (stereo unspecified), the melting point lay in the range of 148 to 150 °C.

With `CC1(C)Oc2ccc(S(=O)(=O)C(F)(F)C(F)(F)C(F)(F)F)cc2[C@@H](N2Cc3ccccc3C2=O)[C@@H]1O` (relative stereo), the melting point was in the range of 241 to 249 °C.

`Cc1ccc(C=CC(=O)CCCCCl)cc1` yielded a melting point of 79 to 82 °C.

`CC(C)(C)OC(=O)CC1(CC(=O)O)CCC(=O)Nc2ccccc21` (stereo unspecified) yielded a melting point of 117 to 119 °C.

For `COC(=O)c1ccc(OCC2CN(c3ccc(Cl)cc3)C(=O)O2)cc1` (stereo unspecified), the melting point lay in the range of 146 to 148 °C.

`COc1ccc(C2=C(c3c[nH]c4ccccc34)C(=O)NC2=O)cc1OC` showed a melting point of 210 °C.

As for `CCOCc1c2c(cc3c(=O)cc(C(=O)O)oc13)CCCC2`, the melting point is 239 °C.

Consider `CCCCN1CCC(CNC(=O)c2cc(Cl)c(N)n3cc(C)nc23)CC1`, for which the melting point fell in the range of 188 to 191 °C.

`OC1CCCc2nc3sccc3c(NCc3ccccc3)c21` (stereo unspecified): the melting point was in the range of 180 to 181 °C.

In turn, `Cc1c(Cl)cccc1S(=O)(=O)Nc1ccc2occ(C)c2c1` came in with a melting point of 120 °C.

In turn, `CN(C)C=Cc1[nH]c(=O)ccc1C(=O)c1ccco1` yielded a melting point of 238 to 240 °C.

`CN1C(=O)C(Cc2ccccc2)Oc2ccc(N)cc21` (stereo unspecified) showed a melting point of 82 to 85 °C.
